Measurements from patent EP4596548A1, “NURR1 MODULATORS” (Ludwig-Maximilians-Universität, priority 2024, dated 2025).
Entries after “also recorded” stand apart in the source; their conditions may differ. Like-named read-outs stand apart in the source and are kept apart here.

Legend:
[1] = biological target: T1, Nurr1 (Homo sapiens, UniProt P43354); experiment: Ligand efficiency metrics; conditions: computed according to ref. 29
Target sequence in this assay (P43354 whole entry): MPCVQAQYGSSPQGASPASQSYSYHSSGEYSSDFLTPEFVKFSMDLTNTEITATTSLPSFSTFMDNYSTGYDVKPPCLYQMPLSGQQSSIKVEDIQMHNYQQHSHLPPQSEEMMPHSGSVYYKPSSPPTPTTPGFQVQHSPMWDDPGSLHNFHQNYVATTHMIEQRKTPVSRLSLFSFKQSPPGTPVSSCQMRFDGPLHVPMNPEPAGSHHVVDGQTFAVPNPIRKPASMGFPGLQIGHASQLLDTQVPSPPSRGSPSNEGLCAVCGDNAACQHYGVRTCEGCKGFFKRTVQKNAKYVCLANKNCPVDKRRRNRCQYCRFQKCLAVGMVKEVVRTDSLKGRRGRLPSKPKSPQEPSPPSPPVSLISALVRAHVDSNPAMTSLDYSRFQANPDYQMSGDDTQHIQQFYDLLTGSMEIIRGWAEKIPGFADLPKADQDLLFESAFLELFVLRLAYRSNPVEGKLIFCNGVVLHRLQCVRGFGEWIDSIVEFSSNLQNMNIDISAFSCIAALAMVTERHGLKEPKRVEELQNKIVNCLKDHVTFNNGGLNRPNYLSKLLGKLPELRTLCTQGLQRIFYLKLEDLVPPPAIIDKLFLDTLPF

[2] = biological target: T1, Nurr1; conditions: Nurr1 agonism, literature values (refs. 24, 27, 28); cited from earlier work
Target sequence in this assay (P43354 whole entry): as above

[3] = Compound stability (observation); format: physicochemical; conditions: printed in the EC50 column of Table 1
[4] = Determination of aqueous solubility; format: physicochemical; conditions: water, 24 h, 25°C
Procedure: Determination of aqueous solubility. […] The mixture was agitated in a VWR Thermal Shake lite (VWR International GmbH, Darmstadt, Germany) for 24 h at 600 rpm and constant temperature of 25°C. The supersaturated mixtures were subsequently centrifuged at 23.300 rpm for 15 min (25 °C). Part of the supernatant was taken off for quantification by UV absorbance at 312 nm with external calibration. The external calibration samples contained 1% DMSO and the test samples were spiked with DMSO to 1% concentration right before the measurement. Absorbance was measured with a Tecan Spark luminometer (Tecan Deutschland GmbH, Crailsheim, Germany). The solubility test was repeated in three independent experiments, […]

[5] = biological target: T2, NOR-1 (Homo sapiens, UniProt Q92570); experiment: Gal4 hybrid reporter gene assay, selectivity profiling (NOR-1); format: cell-based; conditions: result in words, at 10 µM
T2 construct: pFA-CMV-NOR-1-LBD; expressed in transfected cells; host or cells: HEK293T
T2 sequence (Q92570 394-623 limits assumed): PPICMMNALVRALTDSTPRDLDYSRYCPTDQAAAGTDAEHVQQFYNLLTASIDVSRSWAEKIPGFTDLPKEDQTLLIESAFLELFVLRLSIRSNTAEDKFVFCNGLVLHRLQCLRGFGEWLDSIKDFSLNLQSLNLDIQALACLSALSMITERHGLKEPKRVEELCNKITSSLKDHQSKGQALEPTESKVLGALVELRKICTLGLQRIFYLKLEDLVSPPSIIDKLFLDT

[6] = biological target: T3, Nurr1 homodimer (NurRE) (Homo sapiens, UniProt P43354); experiment: Full-length Nurr1 reporter gene assay, response element NurRE; format: cell-based
T3 construct: The full length human nuclear receptor Nurr1 (pcDNA3.1-hNurr1-NE; Addgene plasmid #102363); host or cells: HEK293T
Source text: (§1) Full-length Nurr1 reporter gene assays. Activation of full length human Nurr1 was studied in transiently transfected HEK293T cells using the reporter plasmids pFR-Luc-NBRE^14, pFR-Luc-POMC^14 or pFR-Luc-DR5^14 each containing one copy of the respective human Nurr1 response element NBRE Nl3, NurRE, or DR5. The full length human nuclear receptor Nurr1 (pcDNA3.1-hNurr1-NE; Addgene plasmid #102363) and, for DR5, RXRα (pSG5-hRXR)^44 were overexpressed. pRL-SV40 (Promega) was used for normalization of transfection efficacy and to observe test compound toxicity. […] After 24 h, medium was changed to Opti-MEM without supplements and cells were transiently transfected using Lipofectamine LTX reagent (invitrogen) according to the manufacturer's protocol. Five hours after transfection, cells were incubated with the test compounds in Opti-MEM supplemented with penicillin (100 U/mL), streptomycin (100 µg/mL) and 0.1% DMSO for 16 h before luciferase activity was measured using the Dual-Glo Luciferase Assay System (Promega) according to the manufacturer's protocol on a Tecan Spark luminometer (Tecan Deutschland GmbH). Firefly luminescence was divided by Renilla luminescence and multiplied by 1000 resulting in relative light units (RLU) to normalize for transfection efficiency and cell growth. […]

[7] = biological target: T4, Nurr1 LBD (Homo sapiens, UniProt P43354); experiment: Isothermal titration calorimetry (ITC); format: binding
T4 construct: Nurr1 LBD protein (10-30 µM, expressed as described previously^21); made in house
Procedure: Isothermal Titration Calorimetry (ITC). ITC experiments were conducted on an Affinity ITC instrument (TA Instruments, New Castle, DE) at 25°C with a stirring rate of 75 rpm. Nurr1 LBD protein (10-30 µM, expressed as described previously^21) in buffer (20 mM Tris pH 7.5, 100 mM NaCl, 5% glycerol) containing 1-4% DMSO was titrated with the test compounds (60-150 µM in the same buffer containing 1-4% DMSO) in 26 injections (1x 1 µL, 25x 3-4 µL) with an injection interval of 150 s. As control experiments, the test compounds were titrated to the buffer, and the buffer was titrated to the Nurr1 LBD protein under otherwise identical conditions. Results were analyzed using NanoAnalyze software (version 3.11.0, TA Instruments, New Castle, DE) with independent binding models.

[8] = biological target: T1, Nurr1; experiment: Gal4-Nurr1 hybrid reporter gene assay in HEK293T cells; format: cell-based; design: expressed in transfected cells; host or cells: HEK293T
Procedure: (§2) Hybrid reporter gene assays. Nurr1 modulation was determined in a Gal4 hybrid reporter gene assay in HEK293T cells (German Collection of Microorganisms and Cell Culture GmbH, DSMZ) using pFR-Luc (Stratagene, La Jolla, CA, USA; reporter), pRL-SV40 (Promega, Madison, WI, USA; internal control) and pFA-CMV-hNurr1-LBD^14, coding for the hinge region and ligand binding domain of the canonical isoform of human Nurr1. […] After 24 h, medium was changed to Opti-MEM without supplements and cells were transiently transfected using Lipofectamine LTX reagent (Invitrogen, Carlsbad, CA, USA) according to the manufacturer's protocol. Five hours after transfection, cells were incubated with the test compounds in Opti-MEM supplemented with penicillin (100 U/mL), streptomycin (100 µg/mL) and 0.1% DMSO for 16 h before luciferase activity was measured using the Dual-Glo Luciferase Assay System (Promega) according to the manufacturer's protocol on a Tecan Spark luminometer (Tecan Deutschland GmbH, Crailsheim, Germany). Firefly luminescence was divided by Renilla luminescence and multiplied by 1000 resulting in relative light units (RLU) to normalize for transfection efficiency and cell growth. Fold activation was obtained by dividing the mean RLU of test compound by the mean RLU of the untreated control. All samples were tested in at least three biologically independent experiments in duplicates. For dose-response curve fitting and calculation of EC50 values, the equation "[Agonist] vs. response -- Variable slope (four parameters)" was used in GraphPad Prism (version 7.00, GraphPad Software, La Jolla, CA, USA). Selectivity profiling was performed with identical procedures using pFA-CMV-Nur77-LBD^14, pFA-CMV-NOR-1-LBD^14, pFA-CMV-THRα-LBD^39, pFA-CMV-RARα-LBD^40, pFA-CMV-PPARα-LBD^41, pFA-CMV-PPARγ-LBD^41, pFA-CMV-PPARδ-LBD^41, pFA-CMV-LXRα-LBD^37, pFA-CMV-FXR-LBD^42 and pFA-CMV-hRXRα-LBD^43.
Target sequence in this assay (P43354 360-595 limits assumed): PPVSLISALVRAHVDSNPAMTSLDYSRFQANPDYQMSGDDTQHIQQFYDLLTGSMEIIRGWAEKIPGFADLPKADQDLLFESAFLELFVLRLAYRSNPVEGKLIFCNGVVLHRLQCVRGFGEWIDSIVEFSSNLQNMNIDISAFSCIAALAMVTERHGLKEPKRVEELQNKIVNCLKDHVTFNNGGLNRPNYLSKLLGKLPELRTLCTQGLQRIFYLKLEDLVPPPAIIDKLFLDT

[9] = biological target: T5, Nurr1-RXR heterodimer (DR5) (Homo sapiens, UniProt P43354); experiment: Full-length Nurr1 reporter gene assay, response element DR5 with RXRα; format: cell-based
T5 construct: The full length human nuclear receptor Nurr1 (pcDNA3.1-hNurr1-NE; Addgene plasmid #102363); NE (suffix in the plasmid name); host or cells: HEK293T
Source text: Full-length Nurr1 reporter gene assays. Activation of full length human Nurr1 was studied in transiently transfected HEK293T cells using the reporter plasmids pFR-Luc-NBRE^14, pFR-Luc-POMC^14 or pFR-Luc-DR5^14 each containing one copy of the respective human Nurr1 response element NBRE Nl3, NurRE, or DR5. The full length human nuclear receptor Nurr1 (pcDNA3.1-hNurr1-NE; Addgene plasmid #102363) and, for DR5, RXRα (pSG5-hRXR)^44 were overexpressed. pRL-SV40 (Promega) was used for normalization of transfection efficacy and to observe test compound toxicity. […] After 24 h, medium was changed to Opti-MEM without supplements and cells were transiently transfected using Lipofectamine LTX reagent (invitrogen) according to the manufacturer's protocol. Five hours after transfection, cells were incubated with the test compounds in Opti-MEM supplemented with penicillin (100 U/mL), streptomycin (100 µg/mL) and 0.1% DMSO for 16 h before luciferase activity was measured using the Dual-Glo Luciferase Assay System (Promega) according to the manufacturer's protocol on a Tecan Spark luminometer (Tecan Deutschland GmbH). Firefly luminescence was divided by Renilla luminescence and multiplied by 1000 resulting in relative light units (RLU) to normalize for transfection efficiency and cell growth. Fold activation was obtained by dividing the mean RLU of test compound by the mean RLU of the untreated control. All samples were tested in at least three biologically independent experiments in duplicates. For dose-response curve fitting and calculation of EC50 values, the equation "[Agonist] vs. response -- Variable slope (four parameters)" was used in GraphPad Prism (version 7.00, GraphPad Software).

[10] = biological target: T6, Nur77 (Homo sapiens, UniProt P22736); experiment: Gal4 hybrid reporter gene assay, selectivity profiling (Nur77); format: cell-based
T6 construct: expressed in transfected cells; host or cells: HEK293T
Procedure: as §2, with “For dose-response curve fitting and calculation of EC50 values, the equation "[Agonist] vs. response -- Variable slope (four parameters)" was used in GraphPad Prism (version 7.00, GraphPad Software, La Jolla, CA, USA). Selectivity profiling was performed with identical procedures using pFA-CMV-Nur77-LBD^14, pFA-CMV-NOR-1-LBD^14, pFA-CMV-THRα-LBD^39, pFA-CMV-RARα-LBD^40, pFA-CMV-PPARα-LBD^41, pFA-CMV-PPARγ-LBD^41, pFA-CMV-PPARδ-LBD^41, pFA-CMV-LXRα-LBD^37, pFA-CMV-FXR-LBD^42 and pFA-CMV-hRXRα-LBD^43.” left out

[11] = biological target: T7, Nurr1 monomer (NBRE) (Homo sapiens, UniProt P43354); experiment: Full-length Nurr1 reporter gene assay, response element NBRE; format: cell-based; conditions: result in words
T7 construct: The full length human nuclear receptor Nurr1 (pcDNA3.1-hNurr1-NE; Addgene plasmid #102363); NE (suffix in the plasmid name); host or cells: HEK293T
Source text: as §1

[12] = system: Nurr1-regulated tyrosine hydroxylase (TH), vesicular amino acid transporter 2 (VMAT2) and superoxide dismutase 2 (SOD2) in astrocytes (T98G); experiment: Nurr1-regulated gene expression in T98G cells (qPCR); format: cell-based, human
[13] = system: THRα, RARα, PPARα, PPARγ, PPARδ, LXRα, FXR, RXRα; experiment: Selectivity screening on nuclear receptors outside the NR4A family (Gal4 hybrid reporter gene assays); format: cell-based
Procedure: as §2, with “For dose-response curve fitting and calculation of EC50 values, the equation "[Agonist] vs. response -- Variable slope (four parameters)" was used in GraphPad Prism (version 7.00, GraphPad Software, La Jolla, CA, USA). Selectivity profiling was performed with identical procedures using pFA-CMV-Nur77-LBD^14, pFA-CMV-NOR-1-LBD^14, pFA-CMV-THRα-LBD^39, pFA-CMV-RARα-LBD^40, pFA-CMV-PPARα-LBD^41, pFA-CMV-PPARγ-LBD^41, pFA-CMV-PPARδ-LBD^41, pFA-CMV-LXRα-LBD^37, pFA-CMV-FXR-LBD^42 and pFA-CMV-hRXRα-LBD^43.” left out

[14] = 0.1 µM, 0.3 µM, mRNA vs. DMSO control

T4 sequence (P43354 360-595 limits assumed): as above
T6 sequence (P22736 360-595 limits assumed): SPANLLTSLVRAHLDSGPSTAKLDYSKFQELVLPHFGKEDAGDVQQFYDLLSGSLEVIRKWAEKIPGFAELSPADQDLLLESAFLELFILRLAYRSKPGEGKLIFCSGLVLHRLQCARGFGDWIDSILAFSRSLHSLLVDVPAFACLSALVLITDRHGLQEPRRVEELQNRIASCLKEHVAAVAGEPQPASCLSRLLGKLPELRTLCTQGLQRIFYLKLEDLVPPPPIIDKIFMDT
T7 sequence (P43354 whole entry): as the sequence (P43354 whole entry) above
T3 sequence (P43354 whole entry): as above
T5 sequence (P43354 whole entry): as above
T5 sequence (P19793 whole entry partner): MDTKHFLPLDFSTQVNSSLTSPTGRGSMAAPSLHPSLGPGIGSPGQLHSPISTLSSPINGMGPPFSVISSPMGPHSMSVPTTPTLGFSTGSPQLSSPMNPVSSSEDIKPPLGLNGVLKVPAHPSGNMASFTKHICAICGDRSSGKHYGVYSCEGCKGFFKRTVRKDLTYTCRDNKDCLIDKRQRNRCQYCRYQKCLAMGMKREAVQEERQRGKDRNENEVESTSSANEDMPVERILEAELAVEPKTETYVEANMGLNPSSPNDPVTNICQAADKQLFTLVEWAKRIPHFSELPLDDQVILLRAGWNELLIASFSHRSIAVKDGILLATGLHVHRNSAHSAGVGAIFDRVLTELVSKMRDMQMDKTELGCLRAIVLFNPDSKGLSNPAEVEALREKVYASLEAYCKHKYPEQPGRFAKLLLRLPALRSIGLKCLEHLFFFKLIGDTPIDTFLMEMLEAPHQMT

CCN(CC)Cc1cc(Nc2ccnc3cc(Cl)ccc23)ccc1O [Compound 1, amodiaquine]
ligand efficiency (LE) [1]: 0.26
size-independent ligand eff. (SILE) [1]: 1.79
EC50 [2]: ~20 µM

Cc1[nH]c2c(Cl)cccc2c1N [Compound 6, 7-chloro-2-methyl-1H-indol-3-amine]
stability [3]: not stable; also recorded: unstable

Cc1nc2c(Cl)cccn2c1NC(=O)c1ccc(-c2ccccc2)[nH]1 [Compound 29]
aq. solubility [4]: 4.1 µg/mL
EC50(NOR-1) [5]: no effect; also recorded: no activation (10 µM)
EC50(NurRE) ([6]; result in words, at 10 µM): no activation (10 µM)
Kd(Nurr1 LBD) ([7]; result in words, ITC with 100 µM 29 and 30 µM protein): no detectable binding; also recorded: no binding ^b
less active than 36 as Nurr1 modulator [8]: more than 100 fold
EC50(Nurr1) (max. activation) ([8]; result in words, at 10 µM): no Nurr1 agonism; also recorded: inactive (10 µM); also recorded: no activation (10 µM)
EC50(DR5) [+0.1 µM BEX] ([9]; result in words, at 10 µM): no activation (10 µM)
EC50(Nur77) ([10]; result in words, at 10 µM): no effect; also recorded: no activation (10 µM)
EC50(NBRE) ([11]; at 10 µM): no activation (10 µM)
induction of Nurr1-regulated gene expression ([12]; 10 µM): no effect; also recorded: no induction

Cc1nc2c(Cl)cccn2c1NC(=O)c1ccc(-c2ccc(N(C)C)cc2)o1 [Compound 36, N-(8-Chloro-2-methylimidazo[1,2-a]pyridin-3-yl)-5-(4-(dimethylamino)phenyl)furan-2-carboxamide]
aq. solubility [4]: 6.8 µg/mL
EC50 [6]: 0.094 ± 0.003 µM
Kd ([7]; ITC at 25°C): 0.17 µM
EC50 ([8]; Gal4-Nurr1 hybrid reporter gene assay, mean±SD, n≥3): 0.09 ± 0.005 µM
enhancement of potency by bexarotene (factor) ([9]; DR5, 0.1 µM BEX): > 5
EC50 ([9]; with 0.1 µM bexarotene (BEX)): 0.033 µM
EC50 ([9]; without bexarotene, read-out: EC50(DR5)): 0.165 µM
EC50 [10]: 0.33 ± 0.04 µM
EC50(NBRE) ([11]; at 1 µM): inactive; also recorded: no activation (1 µM)
expression of superoxide dismutase 2 (SOD2) [12, 14]: induced expression
expression of tyrosine hydroxylase (TH) [12, 14]: induced expression
expression of vesicular amino acid transporter 2 (VMAT2) [12, 14]: induced expression
selectivity ([13]; Nurr1 vs. nuclear receptors outside the NR4A family): > 30 fold
activity outside the NR4A family ([13]; at 3 µM, n=3): no off-target activity
